Data: patent US20160032005A1, “METHODS AND PHARMACEUTICALS COMPOSITIONS FOR TREATING BREAST CANCERS” (INSERM (Institut National de la Sante et de la Recherche …, priority 2014, published 2016)

Key:
[1] = tested on: Vangl2; experiment: Vangl2 protein level (western blot) and cellular distribution under autophagy modulators; assay type: cell-based
Source text: (§1) We next addressed the potential colocalization of Vangl2 and p62 in SUM149 cells by immunofluorescence and confocal analysis. In these cells, Vangl2 and p62 have a punctate cytoplasmic pattern and colocalization between the two proteins was seen puncta in the perinuclear region. Specificity of the Vangl2 signal is attested by lack of staining in cells treated with shVangl2. p62 is present in autophagosomes where it accumulates ubiquitinylated proteins bound to its UBA domain for autophagic degradation. Autophagy is active when the fusion between autophagosomes and lysosomes occur leading to the formation of autophagolysosomes endowed with degradative properties. The fusion process, and therefore autophagy, can be inhibited by Bafilomycin A1, an inhibitor of the vacuolar ATPase that blocks the fusion process by blocking the membrane-bound lysosomal vacuolar ATPase (V-ATPase) to prevent the lysosomal lumen acidification responsible for cathepsin activation. Alternatively, autophagy can be induced by rapamycin, an inhibitor of mTOR [38]. […] Decrease of p62 protein level can also be monitored by western blot. Vangl2 protein levels remained unmodified by rapamycin treatment while another prominent feature of autophagy, i.e. degradation of p62 was readily seen. […]

[2] = tested on: p62; experiment: p62 immunolocalization and protein level under autophagy modulators; assay type: cell-based; details: breast cancer and Hela cells
Source text: as §1

[3] = tested on: JNK signaling; experiment: JNK signaling in SUM149 cells; assay type: cell-based; details: compared to GFP alone or shLuc
Source text: (§2) As JNK signaling is usually activated following PCP activation, we next investigated this pathway in SUM149 cells. As previously shown, down-regulation of Vangl2 leads to a decrease in JNK signaling as shown using a time-dependent FCS stimulation of SUM149 transfected with shVangl2 compared to shLuc. No change in phosphorylation of GSK3 was evidenced in the absence of Vangl2. […] Knock-down of p62 expression in SUM149 cells phenocopied lack of Vangl2 expression. […] Next, we fused the p62 (346-388) sequence to GFP and expressed the construct in SUM149 cells. […] Indeed, this construct was able to specifically coimmunoprecipitate with Vangl2 and furthermore compete with the endogenous Vangl2-p62 interaction as shown by the decreased amount of endogenous p62 associated with Vangl2. In order to assess the contribution of the Vangl2-p62 interaction in JNK signaling, we utilized the dominant negative region of p62 and expressed this as a GFP-tagged protein.

[4] = biological target: T1, Vangl2-p62 interaction (Homo sapiens, UniProt Q9ULK5); experiment: Co-immunoprecipitation in SUM149 cells expressing the construct; assay type: cell-based; details: construct expressed in SUM149 cells, compared to GFP alone
T1 construct: endogenous in cells; host or cells: SUM149 cells / cell extracts
T1 sequence (Q9ULK5 1-521): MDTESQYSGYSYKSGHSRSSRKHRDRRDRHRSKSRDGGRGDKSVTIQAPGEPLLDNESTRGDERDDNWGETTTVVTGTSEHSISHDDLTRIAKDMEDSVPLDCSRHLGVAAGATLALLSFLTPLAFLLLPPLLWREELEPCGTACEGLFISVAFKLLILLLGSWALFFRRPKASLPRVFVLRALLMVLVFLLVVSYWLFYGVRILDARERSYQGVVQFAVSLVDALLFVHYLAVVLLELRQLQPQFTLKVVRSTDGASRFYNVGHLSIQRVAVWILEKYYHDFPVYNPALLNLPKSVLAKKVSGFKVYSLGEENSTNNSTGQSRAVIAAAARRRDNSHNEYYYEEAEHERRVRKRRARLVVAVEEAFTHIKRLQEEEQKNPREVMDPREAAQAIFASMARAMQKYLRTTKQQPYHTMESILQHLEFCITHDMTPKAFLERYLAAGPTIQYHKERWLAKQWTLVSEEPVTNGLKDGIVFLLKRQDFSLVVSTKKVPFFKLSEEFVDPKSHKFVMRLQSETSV
Source text: as §2

[5] = tested on: SUM149 cells; experiment: Long-term cell proliferation and anchorage-independent soft agar assays; assay type: cell-based; details: compared to Venus ctrl or shLuc
Source text: In order to challenge the role of Vangl2 in tumor growth, we first designed different short hairpin RNA (shRNA) to downregulate Vangl2 protein expression in SUM149, a basal breast cancer cell line, which were targeted to different sequences of the VANGL2 gene. Vangl2 expression is decreased by approximately 90% with shVangl2 (clone 3.6.9 and 3.2.12) compared shLuc controls. […] Behaviour of shLuc-SUM149 and shVangl2-SUM149 cells was next compared in long-term cell proliferation and anchorage-independent experiments using soft agar assays. Cell proliferation and in vitro tumorigenicity of SUM149 cells were decreased when expression of Vangl2 was decreased using shVangl2 clone 3.6.9. This effect was confirmed using a second shVangl2 clone 3.2.12. The tumorigenic potential of Vangl2 was next assessed in vivo by performing subcutaneous xenografts in NOG mice. Orthotopic injections of shLuc-SUM149 and shVangl2-SUM149 cells were performed and tumour growth was periodically measured.
As JNK signaling is usually activated following PCP activation, we next investigated this pathway in SUM149 cells. As previously shown, down-regulation of Vangl2 leads to a decrease in JNK signaling as shown using a time-dependent FCS stimulation of SUM149 transfected with shVangl2 compared to shLuc. No change in phosphorylation of GSK3 was evidenced in the absence of Vangl2. […]

[6] = tested on: SUM149 cells; experiment: Cell migration assay (Boyden chamber, serum as chemo-attractant); assay type: cell-based; details: compared to Venus ctrl or shLuc
[7] = biological target: T1, Vangl2-p62 interaction; experiment: Competition of endogenous Vangl2-p62 interaction recovered by immunoprecipitation, peptide incubated in SUM149 cell extracts; assay type: binding; details: SUM149 cells / cell extracts

CO/C1=C\C(C)=C\[C@@H](C)[C@@H](O)[C@@H](C)C/C(C)=C/C=C/[C@H](OC)[C@@H]([C@@H](C)[C@@H](O)[C@H](C)[C@@]2(O)C[C@@H](O)[C@H](C)[C@@H](C(C)C)O2)OC1=O [Bafilomycin A1]
Vangl2 protein levels [1]: not modified
p62 immunolocalization [2]: accumulates

GFP-p62 (346-388): p62 (346-388) sequence fused to GFP, expressed in SUM149 cells
JNK signalling [3]: decrease
effect on endogenous Vangl2-p62 interaction in co-immunoprecipitation [4]: dominant-negative effect

Venus-p62 (346-388): Venus-tagged p62 (346-388) expressed by lentiviral infection
colonies in soft agar / in vitro tumorigenicity [5]: fewer colonies
cell migration [6]: decrease

polypeptide (346-371): polypeptide reduced in size, residues 346-371 of p62 (SEQ ID NO:2) (VDPSTGELQSLQMPESEGPSSLDPSQ; listed as Homo sapiens)
disruption of the endogenous Vangl2-p62 interaction [7]: able to inhibit
